In ChEMBL document CHEMBL3352319, “Identification and pharmacological characterization of 3,6-diazabicyclo[3.1.1]heptane-3-carboxamides as novel ligands for the α4β2 and α6/α3β2β3 nicotinic acetylcholine receptors (nAChRs)” (Eur J Med Chem, 2014):

Key:
[1] = target: T1, Neuronal acetylcholine receptor; alpha4/beta2 (Homo sapiens, UniProt P17787+P43681); assay: Displacement of [3H] nicotine from human alpha4beta2 nAChR transfected in SH-EP1 cells by liquid scintillation counting; assay type: cell-based
[2] = target: T2, Neuronal acetylcholine receptor; alpha3/alpha6/beta2/beta3 (Homo sapiens, UniProt P17787+P32297+Q05901+Q15825); assay: Displacement of [3H]epibatidine from human alpha6/alpha3beta2beta3 nAChR transfected in CHO cells by liquid scintillation counting; assay type: cell-based
[3] = target: T1, Neuronal acetylcholine receptor; alpha4/beta2; assay: Agonist activity at human alpha4beta2 nAChR transfected in SH-EP1 cells assessed as calcium flux by FLIPR assay; assay type: cell-based
[4] = target: T1, Neuronal acetylcholine receptor; alpha4/beta2; assay: Agonist activity at human alpha4beta2 nAChR low sensitivity isoform transfected in SH-EP1 cells assessed as calcium flux by FLIPR assay; assay type: cell-based
[5] = target: T1, Neuronal acetylcholine receptor; alpha4/beta2; assay: Agonist activity at human alpha4beta2 nAChR low sensitivity isoform transfected in SH-EP1 cells assessed as calcium flux by FLIPR assay relative to control; assay type: cell-based
[6] = target: T1, Neuronal acetylcholine receptor; alpha4/beta2; assay: Agonist activity at human alpha4beta2 nAChR high sensitivity isoform transfected in SH-EP1 cells assessed as calcium flux by FLIPR assay relative to control; assay type: cell-based
[7] = target: T2, Neuronal acetylcholine receptor; alpha3/alpha6/beta2/beta3; assay: Agonist activity at human alpha6/alpha3beta2beta3 nAChR transfected in CHO cells assessed as calcium flux by FLIPR assay; assay type: cell-based
[8] = target: Neuronal acetylcholine receptor; alpha3/alpha6/beta2/beta3 (Homo sapiens) (UniProt P17787+P32297+Q15825+Q05901); assay: Agonist activity at human alpha6/alpha3beta2beta3 nAChR transfected in CHO cells assessed as calcium flux by FLIPR assay relative to control; assay type: cell-based
[9] = Cmax in po dosed rat; assay type: ADME, organism-based; design: route oral; conditions: in vivo
[10] = Tmax in po dosed rat; assay type: ADME, organism-based; conditions: in vivo
[11] = Oral bioavailability in rat; assay type: ADME, organism-based; conditions: in vivo
[12] = Half life in po dosed rat; assay type: ADME, organism-based; conditions: in vivo
[13] = Drug uptake in po dosed rat plasma after 0.5 hrs by LC-MS/MS analysis; assay type: ADME, organism-based
[14] = Drug uptake in po dosed rat brain after 0.5 hrs by LC-MS/MS analysis; assay type: ADME, organism-based; conditions: read-out: Drug uptake
[15] = Ratio of drug level in po dosed rat brain to plasma after 0.5 hrs by LC-MS/MS analysis; assay type: ADME, organism-based; conditions: read-out: BPR
[16] = Drug uptake in po dosed rat plasma after 1 hrs by LC-MS/MS analysis; assay type: ADME, organism-based
[17] = Drug uptake in po dosed rat brain after 1 hrs by LC-MS/MS analysis; assay type: ADME, organism-based; conditions: read-out: Drug uptake
[18] = Ratio of drug level in po dosed rat brain to plasma after 1 hrs by LC-MS/MS analysis; assay type: ADME, organism-based; conditions: read-out: BPR
[19] = Drug uptake in po dosed rat plasma after 4 hrs by LC-MS/MS analysis; assay type: ADME, organism-based
[20] = Drug uptake in po dosed rat brain after 4 hrs by LC-MS/MS analysis; assay type: ADME, organism-based; conditions: read-out: Drug uptake
[21] = Ratio of drug level in po dosed rat brain to plasma after 4 hrs by LC-MS/MS analysis; assay type: ADME, organism-based; conditions: read-out: BPR
Rattus norvegicus = species on record: Rattus norvegicus; assay: Inhibition of L-dopa-induced abnormal involuntary movement in rat; assay type: functional

T1 sequence (P17787 whole entry): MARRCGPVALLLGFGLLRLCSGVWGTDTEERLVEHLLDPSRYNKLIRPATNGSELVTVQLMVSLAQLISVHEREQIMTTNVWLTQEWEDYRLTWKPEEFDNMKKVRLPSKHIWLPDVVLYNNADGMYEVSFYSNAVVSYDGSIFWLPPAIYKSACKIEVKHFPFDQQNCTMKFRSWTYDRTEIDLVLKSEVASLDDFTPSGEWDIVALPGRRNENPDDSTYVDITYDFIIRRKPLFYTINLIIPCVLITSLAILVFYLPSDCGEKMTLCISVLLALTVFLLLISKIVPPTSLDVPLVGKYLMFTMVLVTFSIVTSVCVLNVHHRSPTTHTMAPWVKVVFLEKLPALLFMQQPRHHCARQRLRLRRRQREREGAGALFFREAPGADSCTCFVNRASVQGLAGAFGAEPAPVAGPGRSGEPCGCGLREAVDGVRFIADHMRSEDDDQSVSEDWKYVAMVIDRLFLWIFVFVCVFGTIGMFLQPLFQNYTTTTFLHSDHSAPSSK
T1 sequence (P43681 whole entry): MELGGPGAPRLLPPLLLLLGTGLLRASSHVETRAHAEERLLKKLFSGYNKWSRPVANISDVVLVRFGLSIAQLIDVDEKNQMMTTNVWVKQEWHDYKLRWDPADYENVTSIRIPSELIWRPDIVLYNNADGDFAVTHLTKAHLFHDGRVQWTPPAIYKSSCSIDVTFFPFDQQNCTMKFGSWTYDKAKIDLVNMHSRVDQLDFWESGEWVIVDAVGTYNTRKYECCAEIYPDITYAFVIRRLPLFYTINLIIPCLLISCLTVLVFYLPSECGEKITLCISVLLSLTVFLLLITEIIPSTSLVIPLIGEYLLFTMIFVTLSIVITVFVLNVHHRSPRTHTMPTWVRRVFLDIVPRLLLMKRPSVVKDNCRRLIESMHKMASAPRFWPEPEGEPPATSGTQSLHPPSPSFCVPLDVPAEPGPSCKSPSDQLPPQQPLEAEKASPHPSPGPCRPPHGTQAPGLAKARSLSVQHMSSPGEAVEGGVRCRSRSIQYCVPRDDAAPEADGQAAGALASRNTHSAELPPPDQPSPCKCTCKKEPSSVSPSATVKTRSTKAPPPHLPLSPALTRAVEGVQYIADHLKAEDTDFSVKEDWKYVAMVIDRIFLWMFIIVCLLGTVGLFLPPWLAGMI
T2 sequence (P17787 whole entry): as the sequence (P17787 whole entry) above
T2 sequence (P32297 whole entry): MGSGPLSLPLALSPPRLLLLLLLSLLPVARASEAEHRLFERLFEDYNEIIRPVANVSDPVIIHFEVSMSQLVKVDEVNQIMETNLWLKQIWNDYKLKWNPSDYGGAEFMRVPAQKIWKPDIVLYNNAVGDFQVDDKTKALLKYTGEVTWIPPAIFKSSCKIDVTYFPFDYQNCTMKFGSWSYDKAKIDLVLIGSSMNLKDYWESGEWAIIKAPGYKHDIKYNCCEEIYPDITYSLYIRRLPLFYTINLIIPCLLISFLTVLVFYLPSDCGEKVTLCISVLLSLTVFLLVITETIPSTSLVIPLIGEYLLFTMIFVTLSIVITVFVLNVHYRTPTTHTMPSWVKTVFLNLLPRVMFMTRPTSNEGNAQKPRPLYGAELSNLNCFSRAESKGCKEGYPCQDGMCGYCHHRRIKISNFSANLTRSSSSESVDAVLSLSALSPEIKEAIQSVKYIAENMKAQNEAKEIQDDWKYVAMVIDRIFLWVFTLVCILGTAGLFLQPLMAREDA
T2 sequence (Q15825 whole entry): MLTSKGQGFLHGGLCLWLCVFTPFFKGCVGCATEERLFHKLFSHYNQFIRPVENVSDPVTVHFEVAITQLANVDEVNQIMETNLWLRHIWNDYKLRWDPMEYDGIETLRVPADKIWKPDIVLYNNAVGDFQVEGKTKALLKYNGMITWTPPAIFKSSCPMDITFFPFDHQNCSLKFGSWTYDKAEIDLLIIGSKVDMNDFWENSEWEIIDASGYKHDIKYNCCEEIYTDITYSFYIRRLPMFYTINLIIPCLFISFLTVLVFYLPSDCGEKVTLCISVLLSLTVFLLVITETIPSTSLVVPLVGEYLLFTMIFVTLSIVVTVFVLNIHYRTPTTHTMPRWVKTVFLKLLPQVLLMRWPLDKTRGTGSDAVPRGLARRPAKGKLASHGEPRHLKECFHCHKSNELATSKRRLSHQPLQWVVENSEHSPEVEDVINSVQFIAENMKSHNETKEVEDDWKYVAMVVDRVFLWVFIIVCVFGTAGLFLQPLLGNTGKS
T2 sequence (Q05901 whole entry): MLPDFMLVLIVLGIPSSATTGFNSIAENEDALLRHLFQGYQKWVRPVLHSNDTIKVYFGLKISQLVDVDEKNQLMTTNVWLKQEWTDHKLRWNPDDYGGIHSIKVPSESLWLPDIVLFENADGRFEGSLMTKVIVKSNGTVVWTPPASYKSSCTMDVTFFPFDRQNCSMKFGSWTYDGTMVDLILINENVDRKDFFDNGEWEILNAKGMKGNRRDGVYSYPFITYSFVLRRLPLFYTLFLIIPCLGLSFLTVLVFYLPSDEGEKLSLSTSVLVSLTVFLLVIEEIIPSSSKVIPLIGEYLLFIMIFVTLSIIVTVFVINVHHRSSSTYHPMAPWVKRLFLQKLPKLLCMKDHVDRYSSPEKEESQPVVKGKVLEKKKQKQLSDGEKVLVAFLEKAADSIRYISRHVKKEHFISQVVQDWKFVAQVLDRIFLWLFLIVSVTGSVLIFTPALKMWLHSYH

Compound: O=C(C1CCCC1)N1CC2CC(C1)N2
- Ki [1]: 0.16 µM
- Ki [2]: 2.9 µM
- EC50 [3]: 11 µM
- EC50 [4]: 29 µM
- Emax [5]: 48%
- Emax [6]: 68%
- EC50 [7]: 1.6 µM
- Emax [8]: 62%

Compound: CCCC(=O)N1CC2CC(C1)N2
- Ki [1]: 0.014 µM
- Ki [2]: 0.35 µM
- EC50 [3]: 0.58 µM
- EC50 [4]: 0.85 µM
- Emax [5]: 120%
- Emax [6]: 110%
- EC50 [7]: 0.3 µM
- Emax [8]: 92%

Compound: O=C(C1CC1)N1CC2CCC(C1)N2
- Ki [1]: 0.32 µM
- Ki [2]: 7.2 µM

Compound: O=C(C1CC1)N1CC2CC(C1)N2
- Ki [2]: 0.021 µM
- EC50 [3]: 0.14 µM
- EC50 [4]: 0.85 µM
- Emax [5]: 110%
- Emax [6]: 110%
- EC50 [7]: 0.08 µM
- Emax [8]: 100%
- Cmax [9]: 0.2 µg/mL
- Tmax [10]: 1 h
- bioavailability [11]: 82.6%
- half-life [12]: 1.58 h
- concentration at 0.5 h [13]: 0.123 µg/mL
- concentration at 0.5 h [14]: 39.5 ng/g
- Kp at 0.5 h [15]: 0.22
- concentration at 1 h [16]: 0.174 µg/mL
- concentration at 1 h [17]: 53.7 ng/g
- Kp at 1 h [18]: 0.31
- concentration at 4 h [19]: 0.0622 µg/mL
- concentration at 4 h [20]: 20.2 ng/g
- Kp at 4 h [21]: 0.32
- inhibition (INH) (Rattus norvegicus): 24%

Compound: C[C@H]1C[C@@H]1C(=O)N1CC2CC(C1)N2
- Ki [1]: 0.017 µM
- Ki [2]: 0.31 µM
- EC50 [3]: 9.1 µM
- EC50 [4]: 14 µM
- Emax [5]: 67%
- Emax [6]: 85%
- EC50 [7]: 3.8 µM
- Emax [8]: 64%

Compound: O=C(CC1C=CCC1)N1CC2CC(C1)N2 (configuration not stated)
- Ki [1]: 0.053 µM
- Ki [2]: 2.5 µM
- EC50 [3]: 14 µM
- EC50 [4]: 37 µM
- Emax [5]: 89%
- Emax [6]: 94%
- EC50 [7]: 21 µM
- Emax [8]: 47%

Compound: O=C(C1CC1(F)F)N1CC2CC(C1)N2 (configuration not stated)
- Ki [1]: 0.0059 µM
- Ki [2]: 0.075 µM
- EC50 [3]: 1 µM
- EC50 [4]: 2.3 µM
- Emax [5]: 94%
- Emax [6]: 100%
- EC50 [7]: 0.1 µM
- Emax [8]: 110%

Compound: O=C([C@H]1C[C@@H]1F)N1CC2CC(C1)N2
- Ki [1]: 0.0054 µM
- Ki [2]: 0.49 µM
- EC50 [3]: 0.85 µM
- EC50 [4]: 2.8 µM
- Emax [5]: 100%
- Emax [6]: 100%
- EC50 [7]: 0.62 µM
- Emax [8]: 85%

Compound: O=C(C1CCC1)N1CC2CC(C1)N2
- Ki [1]: 0.016 µM
- Ki [2]: 0.24 µM
- EC50 [3]: 2.9 µM
- EC50 [4]: 11 µM
- Emax [5]: 100%
- Emax [6]: 99%
- EC50 [7]: 0.37 µM
- Emax [8]: 80%

Compound: O=C([C@@H]1C[C@@H]1F)N1CC2CC(C1)N2
- Ki [1]: 0.0017 µM
- Ki [2]: 0.055 µM
- EC50 [3]: 0.12 µM
- EC50 [4]: 0.37 µM
- Emax [5]: 120%
- Emax [6]: 110%
- EC50 [7]: 0.088 µM
- Emax [8]: 120%

Compound: O=C([C@@H]1C[C@H]1F)N1CC2CC(C1)N2
- Ki [2]: 0.043 µM
- EC50 [3]: 0.12 µM
- EC50 [4]: 0.87 µM
- Emax [5]: 110%
- Emax [6]: 110%
- EC50 [7]: 0.053 µM
- Emax [8]: 130%

Compound: O=C([C@H]1C[C@H]1F)N1CC2CC(C1)N2
- Ki [2]: 0.027 µM
- EC50 [3]: 0.21 µM
- EC50 [4]: 1.5 µM
- Emax [5]: 110%
- Emax [6]: 110%
- EC50 [7]: 0.062 µM
- Emax [8]: 130%

Compound: O=C(C1CC=CC1)N1CC2CC(C1)N2
- Ki [1]: 0.051 µM
- Ki [2]: 1.1 µM
- EC50 [3]: 6.6 µM
- EC50 [4]: 17 µM
- Emax [5]: 93%
- Emax [6]: 95%
- EC50 [7]: 1.9 µM
- Emax [8]: 99%

Compound: CCC(=O)N1CC2CC(C1)N2
- Ki [1]: 0.006 µM
- Ki [2]: 0.19 µM
- EC50 [3]: 0.49 µM
- EC50 [4]: 5.9 µM
- Emax [5]: 98%
- Emax [6]: 110%
- EC50 [7]: 0.18 µM
- Emax [8]: 120%

Compound: CC1(C)CC1C(=O)N1CC2CC(C1)N2 (configuration not stated)
- Ki [1]: 0.0039 µM
- Ki [2]: 0.25 µM
- EC50 [3]: 2.2 µM
- EC50 [4]: 5.7 µM
- Emax [5]: 96%
- Emax [6]: 92%
- EC50 [7]: 0.54 µM
- Emax [8]: 73%

Compound: CC(C)C(=O)N1CC2CC(C1)N2
- Ki [1]: 0.13 µM
- Ki [2]: 0.58 µM
- EC50 [3]: 19 µM
- EC50 [4]: 20 µM
- Emax [5]: 86%
- Emax [6]: 71%
- EC50 [7]: 16 µM
- Emax [8]: 45%

Compound: C[C@@H]1C[C@@H]1C(=O)N1CC2CC(C1)N2
- Ki [2]: 0.092 µM
- EC50 [3]: 2.1 µM
- EC50 [4]: 3.8 µM
- Emax [5]: 88%
- Emax [6]: 97%
- EC50 [7]: 0.92 µM
- Emax [8]: 87%

Compound: C[C@H]1C[C@H]1C(=O)N1CC2CC(C1)N2
- Ki [1]: 0.007 µM
- Ki [2]: 0.17 µM
- EC50 [3]: 2.2 µM
- EC50 [4]: 5.8 µM
- Emax [5]: 87%
- Emax [6]: 93%
- EC50 [7]: 2 µM
- Emax [8]: 60%

Compound: O=C(C1CC1)N1CCNCC1
- Ki [1]: 6 µM
- Ki [2]: 26 µM

Compound: CC(=O)N1CC2CC(C1)N2
- Ki [1]: 0.15 µM
- Ki [2]: 0.61 µM
- EC50 [3]: 5.1 µM
- EC50 [4]: 9.7 µM
- Emax [5]: 94%
- Emax [6]: 95%
- EC50 [7]: 0.75 µM
- Emax [8]: 100%

Compound: C[C@@H]1C[C@H]1C(=O)N1CC2CC(C1)N2
- Ki [2]: 0.014 µM
- EC50 [3]: 0.19 µM
- EC50 [4]: 2.9 µM
- Emax [5]: 110%
- Emax [6]: 110%
- EC50 [7]: 0.051 µM
- Emax [8]: 110%

Compound: O=C(C1CC1)N1CC2CC1CN2 (configuration not stated)
- Ki [1]: 2.8 µM
- Ki [2]: 10 µM
